In the test the target is T1, human CRTH2 (Homo sapiens, UniProt Q9Y5Y4).
T1 construct: expressed in transfected cells; membranes used
T1 sequence (Q9Y5Y4 1-395): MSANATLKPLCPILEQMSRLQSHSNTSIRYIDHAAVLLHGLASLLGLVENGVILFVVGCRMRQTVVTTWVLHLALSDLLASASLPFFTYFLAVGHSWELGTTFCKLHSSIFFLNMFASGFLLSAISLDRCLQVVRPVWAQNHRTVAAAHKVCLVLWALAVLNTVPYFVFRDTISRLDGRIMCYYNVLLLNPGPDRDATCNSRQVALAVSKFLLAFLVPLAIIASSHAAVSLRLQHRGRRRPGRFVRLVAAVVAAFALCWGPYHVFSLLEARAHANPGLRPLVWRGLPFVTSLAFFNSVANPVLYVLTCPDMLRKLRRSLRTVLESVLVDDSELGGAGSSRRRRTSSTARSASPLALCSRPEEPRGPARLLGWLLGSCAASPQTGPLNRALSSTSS
The test can be described thus: [35S]GTPγS binding assay (SPA). The class given is biochemical. Here is the method: [^35S]GTPγS Binding Assay
SPA [^35S]GTPγS binding was performed on membranes from CHO-K1 cells stably expressing human CRTH2. To a white, clear-bottomed 384-well plate, 4 μg membrane protein was incubated in the binding buffer (20 mM HEPES, pH 7.4, 10 mM MgCl2, 300 mM NaCl, 0.2% BSA) with 60 nM DHK-PGD2, 500 pM [^35S]GTPγS, 10 μM GDP, and 100 μg wheat germ agglutinin-coupled SPA beads (GE Healthcare) with and without increasing concentrations of compounds. The final assay volume was 40 μL and contained 1% DMSO. Samples were incubated for 2 h at ambient temperature. Plates were centrifuged 5 min at 1500 rpm. Plates were read after an additional 4 h using the Trilux 1450 Microbeta (PerkinElmer) with a 30 sec/well reading time.

[1] abbreviates: membranes from CHO-K1 cells stably expressing human CRTH2, 60 nM DHK-PGD2, read-out: CRTH2 GTPγS assay IC50.

Read-outs that look alike come from different tables or passages of the source.

As usually defined, the IC50 is the concentration at which inhibition is half-maximal. As for `CN(Cc1cccc(-c2cc(C(F)(F)F)ccc2OCC(=O)O)c1)C(=O)Nc1ccccc1` [Compound 28, {[3′-{[(anilinocarbonyl)(methyl)amino]methyl}-5-(trifluoromethyl)biphenyl-2-yl]oxy}acetic acid], under setting [1], the IC50 was in the range of 100 to 1000 nM.

Turning to `CC(=O)N(Cc1cccc(-c2cc(C(F)(F)F)ccc2OCC(=O)O)c1)c1ccccc1` [Compound 22, {[3′-{[acetyl(phenyl)amino]methyl}-5-(trifluoromethyl)biphenyl-2-yl]oxy}acetic acid], under setting [1], the IC50 lay within 100 to 1000 nM.

As for `CN(Cc1cccc(-c2cc(C(F)(F)F)ccc2OCC(=O)O)c1)C(=O)Oc1ccccc1` [Compound 24, {[3′-{[methyl(phenoxycarbonyl)amino]methyl}-5-(trifluoromethyl)biphenyl-2-yl]oxy}acetic acid], the IC50 was 100 to 1000 nM.

With `CCCCOC(=O)N(Cc1cccc(-c2cc(C(F)(F)F)ccc2OCC(=O)O)c1)Cc1nccs1` [Compound 27, {[3′-{[(butoxycarbonyl)(1,3-thiazol-2-ylmethyl)amino]methyl}-5-(trifluoromethyl)biphenyl-2-yl]oxy}acetic acid], the IC50 under setting [1] is < 100 nM.

On to `CCCCNC(=O)CN(Cc1cccc(-c2cc(Cl)ccc2OCC(=O)O)c1)C(=O)OCCCC` [Compound 11, {[3′-({(butoxy carbonyl)[2-(butylamino)-2-oxoethyl]amino}methyl)-5-chlorobiphenyl-2-yl]oxy}acetic acid], for which the IC50 under setting [1] was < 100 nM.

Regarding `CCCCNC(=O)CN(CCc1ccc(-c2ccccc2OCC(=O)O)cc1)C(=O)OCCCC` [Compound 36, {[4′-({(butoxy carbonyl)[2-(butylamino)-2-oxoethyl]amino}ethyl)biphenyl-2-yl]oxy}acetic acid], under setting [1], the IC50 is < 100 nM.

Regarding `CN(Cc1cccc(-c2cc(C(F)(F)F)ccc2OCC(=O)O)c1)C(=O)c1ccccc1` [Compound 23, {[3′-{[methyl(phenylcarbonyl)amino]methyl}-5-(trifluoromethyl)biphenyl-2-yl]oxy}acetic acid], the IC50 under setting [1] fell in the range of 100 to 1000 nM.

With `CCCCNC(=O)N(C)Cc1cccc(-c2cc(C(F)(F)F)ccc2OCC(=O)O)c1` [Compound 30, {[3′-{[(butylaminocarbonyl)(methyl)amino]methyl}-5-(trifluoromethyl)biphenyl-2-yl]oxy}acetic acid], the IC50 under setting [1] was < 100 nM.

`CCCCNC(=O)CN(Cc1cccc(-c2ccccc2OCC(=O)O)c1)C(=O)OCCCC` [Compound 6, {[3′-({(butoxy carbonyl)[2-(butylamino)-2-oxoethyl]amino}methyl)biphenyl-2-yl]oxy}acetic acid]: the IC50 under setting [1] was < 100 nM.

For the compound `CNC(=O)CN(Cc1cccc(-c2cc(C(F)(F)F)ccc2OCC(=O)O)c1)C(C)=O` [Compound 21, {[3′-({(acetyl)[2-(methylamino)-2-oxoethyl]amino}methyl)-5-(trifluoromethyl)biphenyl-2-yl]oxy}acetic acid], the IC50 under setting [1] was in the range of 100 to 1000 nM.

On to `CCCCOC(=O)N(CCCC)Cc1cccc(-c2cc(C(F)(F)F)ccc2OCC(=O)O)c1` [Compound 19, {[3′-{[(butoxycarbonyl)(butyl)amino]methyl}-5-(trifluoromethyl)biphenyl-2-yl]oxy}acetic acid], for which the IC50 under setting [1] was < 100 nM.

On to `CCCCNC(=O)CN(Cc1cccc(-c2cc(F)ccc2OCC(=O)O)c1)C(=O)OCCCC` [Compound 7, {[3′-({(butoxy carbonyl)[2-(butylamino)-2-oxoethyl]amino}methyl)-5-fluorobiphenyl-2-yl]oxy}acetic acid], for which the IC50 under setting [1] is < 100 nM.

`CN(Cc1cccc(-c2cc(C(F)(F)F)ccc2OCC(=O)O)c1)S(=O)(=O)c1cccnc1` [Compound 34, {[3′-{[(pyridine-3-ylsulfonyl)(methyl)amino]methyl}-5-(trifluoromethyl)biphenyl-2-yl]oxy}acetic acid]: the IC50 under setting [1] fell in the range of 100 to 1000 nM.

For the compound `CCCCNC(=O)CN(Cc1cccc(-c2cc(C(F)(F)F)ccc2OCC(=O)O)c1)C(=O)OCCCC` [Compound 9, {[3′-({(butoxy carbonyl)[2-(butylamino)-2-oxoethyl]amino}methyl)-5-(trifluoromethyl)biphenyl-2-yl]oxy}acetic acid], under setting [1], the IC50 was < 100 nM.

Take `CCCCNC(=O)CN(Cc1cccc(-c2cc(C)ccc2OCC(=O)O)c1)C(=O)OCCCC` [Compound 8, {[3′-({(butoxy carbonyl)[2-(butylamino)-2-oxoethyl]amino}methyl)-5-methylbiphenyl-2-yl]oxy}acetic acid]: the IC50 under setting [1] was < 100 nM.

For the compound `CCCCOC(=O)N(CC(=O)NC)Cc1cccc(-c2cc(C(F)(F)F)ccc2OCC(=O)O)c1` [Compound 20, {[3′-({(butoxycarbonyl) [2-(methylamino)-2-oxoethyl]amino}methyl)-5-(trifluoromethyl)biphenyl-2-yl]oxy}acetic acid], the IC50 under setting [1] was < 100 nM.

With `CN(Cc1cccc(-c2cc(C(F)(F)F)ccc2OCC(=O)O)c1)C(=O)c1cccnc1` [Compound 32, {[3′-{[methyl(pyridine-3-ylcarbonyl)amino]methyl}-5-(trifluoromethyl)biphenyl-2-yl]oxy}acetic acid], the IC50 under setting [1] is < 100 nM.

With `CN(Cc1cccc(-c2cc(C(F)(F)F)ccc2OCC(=O)O)c1)C(=O)Nc1cccnc1` [Compound 29], the IC50 under setting [1] was 100 to 1000 nM.

As to `CN(Cc1cccc(-c2cc(C(F)(F)F)ccc2OCC(=O)O)c1)S(=O)(=O)c1ccccc1` [Compound 33, {[3′-{[(benzensulfonyl)(methyl)amino]methyl}-5-(trifluoromethyl)biphenyl-2-yl]oxy}acetic acid], under setting [1], the IC50 lay in the range of 100 to 1000 nM.

On to `CCCCOC(=O)N(C)Cc1cccc(-c2cc(C(F)(F)F)ccc2OCC(=O)O)c1` [Compound 18, {[3′-{[(butoxycarbonyl)(methyl)amino]methyl}-5-(trifluoromethyl)biphenyl-2-yl]oxy}acetic acid], for which the IC50 under setting [1] is < 100 nM.

`CCCCOC(=O)N(Cc1cccc(-c2cc(C(F)(F)F)ccc2OCC(=O)O)c1)c1ccccc1` [Compound 25, {[3′-{[(butoxycarbonyl)(phenyl)amino]methyl}-5-(trifluoromethyl)biphenyl-2-yl]oxy}acetic acid]: the IC50 under setting [1] was 100 to 1000 nM.

Turning to `CCCCNC(=O)CN(Cc1cccc(-c2ccccc2OCC(=O)O)c1)C(=O)Cc1ccccc1` [Compound 13, {[3′-{[[2-(butylamino)-2-oxoethyl](phenylacetyl)amino]methyl}-biphenyl-2-yl]oxy}acetic acid], the IC50 under setting [1] is < 100 nM.

For the origin of these results see patent US20110136877A1, “2-PHENYL PHENOXYACETIC ACIDS USEFUL FOR TREATING INFLAMMATORY DISORDERS” (LIGAND PHARMACEUTICALS INC., priority 2008, published 2011).
